Patent US20250134122A1, “PEDIATRIC NUTRITIONAL COMPOSITIONS AND METHODS FOR INFANTS DELIVERED BY C-SECTION” (Mead Johnson Nutrition Company, priority 2018, published 2025)

Test system: mouse fecal microbiota
Test: Gut microbiota community structure (16S rRNA V4-V5 sequencing, β-diversity, PCoA) after 3 weeks on experimental diets
Format: in vivo
Conditions: adult male C57bl/6 mice, 3 weeks of feeding; versus Control-fed or SAL-fed mice; ADONIS p<0.05
Excerpt: Adult male C57bl/6 strains of Mus musculus (Charles Rivers Laboratories, Wilmington, MA) between 6-8 weeks of age were used in the study. After being received from the vendor, mice were placed on one of three experimental diets. Animals were given ad libitum access to water, and maintained on the experimental diets for 3 weeks. Experimental diets were: (1) Control diet (AlN-93G mouse chow); (2) AlN-93G supplemented with galactooligosaccharides (GOS 21.2 g/kg)+polydextrose (PDX 6.6 g/kg)+sialyllactose (SAL 2 g/kg); (3) AlN-93G supplemented with SAL.
Colon contents were removed via direct excision for metabolomic analysis, and the colon tissue was briefly washed in a PBS bath so as to not disturb the mucous layer. DNA was extracted from the medial section of the colon (˜10 mg) using a Qiagen DNA Mini Kit, following manufacturer's instructions with slight modifications. Briefly, tissues were incubated for 45 min at 37° C. in lysozyme buffer (20 mg/ml lysozyme, 20 mM TrisHCL, 2 mM EDTA, 1.2% Triton-x, pH 8.0), then bead-beat for 150 sec with 0.7 mm zirconia beads. Samples were incubated at 56° C. for 2 hr with Buffer ATL and Proteinase K, then incubated at 56° C. for 30 min and 95° C. for 10 min upon addition of Buffer AL. […] DNA was quantified with the Qubit 2.0 Fluorometer (Life Technologies, Carlsbad, CA) using the dsDNA Broad Range Assay Kit. […]

sialyllactose [SAL]
mouse fecal microbiota community structure (β-diversity; Unweighted UniFrac), PCoA clustering: not achieved
